The target of data set [1] is T1, Helicobacter pylori glutamine synthetase (HpGS), SEQ ID NO: 2 (Helicobacter pylori, UniProt P94845).
T1 construct: BpsA-coupled assay
T1 sequence (P94845 1-481): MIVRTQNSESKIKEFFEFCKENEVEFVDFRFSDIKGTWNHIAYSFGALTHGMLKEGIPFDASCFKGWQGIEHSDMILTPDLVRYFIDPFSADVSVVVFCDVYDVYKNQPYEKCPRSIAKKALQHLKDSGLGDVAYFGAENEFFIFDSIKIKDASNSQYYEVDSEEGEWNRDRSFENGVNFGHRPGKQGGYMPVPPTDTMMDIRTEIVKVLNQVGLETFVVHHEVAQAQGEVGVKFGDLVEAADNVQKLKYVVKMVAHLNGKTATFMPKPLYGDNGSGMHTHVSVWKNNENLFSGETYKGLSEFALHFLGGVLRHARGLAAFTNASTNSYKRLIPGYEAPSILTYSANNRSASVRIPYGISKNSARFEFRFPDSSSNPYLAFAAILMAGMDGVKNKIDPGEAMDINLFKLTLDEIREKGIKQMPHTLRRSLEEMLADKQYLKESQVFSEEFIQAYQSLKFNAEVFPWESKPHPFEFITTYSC
Briefly: GS-BpsA coupled assay kinetics of HpGS for glutamate and ammonium (A590, indigoidine). Format: biochemical. To be noted: 37° C., coupled with BpsA. On the procedure:
(§1) FIG. 6A: Sigmoidal kinetics data obtained when the GS from Helicobacter pylori (HpGS) is assayed in the presence of various concentrations of its substrate, glutamate. The concentration of GS and BpsA is 3 μM and 6 μM respectively. An optimised condition for the GS-BpsA assay was used. A range of glutamate concentrations (0-900 μM) was used in the assay. Rates were measured through the increase in absorbance at 590 nm at 37° C. Data are the mean values of three replicates and error bars indicate the standard error of the mean.
(§2) FIG. 6B: Sigmoidal kinetics data obtained when HpGS is assayed in the presence of various concentrations of its substrate, ammonium. The concentration of GS and BpsA is 3 μM and 6 μM respectively. An optimised condition for the GS-BpsA assay was used. A range of 0-900 μM NH4Cl was used in the assay. Rates were measured through the increase in absorbance at 590 nm at 37° C. Data are the mean values of three replicates and error bars indicate the standard error of the mean.
(§3) FIG. 21A: Amino acid sequence for Helicobacter pylori glutamine synthetase enzyme. SEQ ID NO: 2. The His-tag sequence used for the protein fusion is also shown.
(§4) Optimised ATP/pH and Mg^2+ conditions were utilised with varying concentrations of KCl (FIG. 5). A concentration of 10 mM KCl was chosen to be optimal based on this experiment. The final optimised reaction mixture for the GS-BpsA assay was determined to be 100 mM Tris Base pH 11.4, 15 mM ATP, 20 mM MgCl2, and 10 mM KCl.
(§5) Using optimised assay conditions for the GS-BpsA coupled assay, kinetics data for HpGS were collected for its substrates glutamate and ammonium. For these experiments, the concentrations of GS and BpsA were 3 μM and 6 μM respectively. Optimised conditions for the GS-BpsA assay were used. A range of 0-1000 μM glutamate concentration and 1000 μM NH4Cl was used in the assay. Rates were measured through the increase in absorbance for 5 minutes at 590 nm and 37° C.
(§6) GS enzymes have been previously found to display non-Michaelis-Menten, sigmoidal kinetics (Murray et al., 2013). As expected, the data were fit better by the Hill equation for cooperative enzymes than by the Michaelis-Menten equation (FIGS. 6A-6B). The Hill coefficient indicates the estimate of the number of active sites that are acting cooperatively, which has a value of approximately 2 for both substrates.

Data set [2] in a line: GS activity assay coupled with PK/LDH (NADH oxidation, A340). Format: biochemical. To be noted: 37° C., decrease of absorbance at 340 nm. The protocol:
FIG. 3: GS activity assay. The assay was adapted from Shapiro et. al. The reaction mixture included 30 mM imidazole, 100 mM Na-glutamate, 8.5 mM adenosine 5′-triphosphate (ATP), 1 mM phosphoenolpyruvate (PEP), 60 mM magnesium chloride (MgCl2), 20 mM potassium chloride (KCl), 45 mM ammonium chloride (NH4Cl), 0.25 mM (3-nicotinamide adenine dinucleotide (NADH), 28 units pyruvate kinase/40 units L-lactic dehydrogenase (PK/LDH). The reactions were performed at 37° C. and rates were measured by the decrease of absorbance at 340 nm.
For preliminary experiments, glutamine synthetase from Escherichia coli (E. coli) was successfully expressed, purified and tested for activity. This assay took advantage of the biosynthetic reaction of GS (which produces ADP) coupled with lactate dehydrogenase and pyruvate kinase to oxidise NADH (Shapiro & Stadtman, 1970).
The reaction mixture included 30 mM imidazole, 100 mM Na-glutamate, 8.5 mM adenosine 5′-triphosphate (ATP), 1 mM phosphoenolpyruvate (PEP), 60 mM magnesium chloride (MgCl2), 20 mM potassium chloride (KCl), 45 mM ammonium chloride (NH4Cl), 0.25 mM 0-nicotinamide adenine dinucleotide (NADH), 28 units pyruvate kinase/40 units L-lactic dehydrogenase (PK/LDH). The reactions were performed at 37° C. and rates were measured by the decrease of absorbance at 340 nm.
The soluble GS enzymes were tested. […]

The nature of data set [3]: Activity assay of purified arginine deiminase. Format: biochemical. On the procedure: We attempted to express and purify the three ADI enzymes in E. coli. After numerous attempts, we were unable to express the M. hominis or P. putida enzymes in a soluble form. Each protein was expressed solely in inclusion bodies, under all conditions tested (FIG. 14A). Purification from inclusion bodies and refolding were also attempted, without success. In contrast, we were able to express and purify the P. aeruginosa ADI enzyme (average yield=40 mg per litre of bacterial culture).

Substrate in data set [4]: N[C@@H](CCC(=O)O)C(=O)O
In words: GS-BpsA coupled assay kinetics of HpGS for glutamate and ammonium (A590, indigoidine). Format: biochemical, Helicobacter pylori. To be noted: coupled with BpsA, pH 11.4; for K0.5: Hill equation. On the procedure:
as §1, §2, §3, §4, §5, §6

Substrate in data set [5]: N=C(N)NCCC[C@H](N)C(=O)O
In words: Michaelis-Menten kinetics of RcArgZ with arginine (glutamate dehydrogenase coupled assay, A340). The class given is biochemical, Rhodospirillum centenum. To be noted: other: 37° C., 0-3000 μM arginine, decrease in absorbance at 340 nm. On the procedure:
FIG. 17: Michaelis-Menten kinetics of RcArgZ with arginine. A range of 0-3000 μM arginine concentration was used in the assay. Rates were measured through the decrease in absorbance at 340 nm at 37° C. Data are the mean values of three replicates and error bars indicate the standard error of the mean.
FIG. 22A: Amino acid sequence for Rhodospirillum centenum arginine dihydrolase enzyme. SEQ ID NO: 3. This sequence is derived from the sequence listed as accession number B6IRA8 in the UniProt database, but with the deletion of amino acid residues 2 to 18 from the UniProt sequence. These residues were deleted because they were predicted to encode a disordered region in the polypeptide. The His-tag sequence used for the protein fusion is also shown.
For this reason, we ordered the gene for this isolated domain from a commercial gene synthesis company (Twist Bioscience). […]
RcArgZ activity was quantified in vitro by coupling it with glutamate dehydrogenase (GDH) in a spectrophotometric assay. […]
Therefore, a decrease in absorbance at 340 nm is directly relative to glutamate production, and because GDH is in excess in the reaction, it is directly relative to RcArgZ activity to produce ammonium from arginine.
Activity data for RcArgZ were collected across a range of arginine concentrations. […] Rates were measured through the decrease in absorbance at 340 nm at 37° C.

The mark [6] stands for this setting: other: Biological Replicate 1, 37° C.
[7] abbreviates: other: Biological Replicate 2, 37° C.

Where two headings read alike, the source gives them in different places.

With `N` [Ammonium, ammonium], the “kcat (estimated from Vmax)” value in data set [1] is 0.8 ± 0.03 s⁻¹. In data set [1] (Hill equation), this molecule came in with a Hill coefficient of 2.0. In addition, the Km in data set [1] (read-out: Khalf (concentration of the substrate at the half-maximal velocity)) was about 100 µM; in data set [1] (Biological Replicate 1, Hill equation, read-out: Khalf (ammonium)), 96 µM; in data set [1] (Biological Replicate 2, Hill equation, read-out: Khalf (ammonium)), 97 µM. Besides, the “kcat (ammonium varied)” value in data set [1] (Biological Replicate 1) and in data set [1] (Biological Replicate 2) was 0.78 s⁻¹ throughout.

“EcGS: glutamine synthetase from Escherichia coli, SEQ ID NO: 14”: in data set [2], the “GS activity (ATP hydrolysis) in PK/LDH assay” value is given as “only slightly active”.

“P. aeruginosa ADI: Pseudomonas aeruginosa arginine deiminase enzyme expressed and purified from E. coli”: the “activity of purified arginine deiminase” value in data set [3] was “did not have any activity”.

B1: Helicobacter pylori glutamine synthetase (HpGS), SEQ ID NO: 2 (Helicobacter pylori 26695) (protein)
chain: T1 sequence (P94845 1-481)
notes: BpsA-coupled assay
Consider B1, for which, in data set [4] (setting [6]), the K0.5 stood at 350 µM and the kcat amounted to 0.28 s⁻¹. In data set [4] (setting [7]), the K0.5 was found to be 350 µM and the kcat worked out at 0.45 s⁻¹.

B2: Rhodospirillum centenum arginine dihydrolase (RcArgZ), truncated: deletion of residues 2 to 18 of UniProt B6IRA8, SEQ ID NO: 3 (Rhodospirillum centenum SW) (protein)
chain: APPRIIMCAPDHFEVSYTINPWMRPDEWEARRSELSGAAAAGWSALRRRLQQLGAAVELVAPRSGLPDLVFTANAAVVLDGKALVARFRHPERRPEEPHFRRFFDGLAARGLLDEVHDMPPGVCLEGAGDCVHDAGRGVFFLGHGFRSDREAAAVVADLFGEEVEPLELVDPRFYHMDTALCPLSGGEVLYVPGAFSAEGRGRLRERIGADRLIEVPEADAVRLAANAVNLGRDVVLAEASDDLKAALAERGYSVHEVPIRSFGLSGGSAFCLTLRLDRRSNRRSGRPVGGTGPGAAADAPGQPALLD
notes: synthetic gene (Twist Bioscience); GDH-coupled assay
Regarding B2, in data set [5], the Km was found to be 360 ± 30 µM and the kcat is 10.4 s⁻¹.

As usually defined, the Hill coefficient is the slope factor of the fitted curve. As usually defined, the kcat is the number of substrate molecules converted per active site and unit of time at saturation.

Values taken from patent US20250003940A1, “BIOSENSOR, BIOSENSOR COMPONENTS, AND USE THEREOF” (VICTORIA LINK LIMITED, priority 2021, published 2025).
